Reference: PubChem BioAssay AID2060896 (Molecular Pharmacology Branch, DTP, NCI, 2025)

Tested on: 941728-121-R-J1-PDC complex spheroid viability
Assay: Anticancer human tumor 941728-121-R-J1-PDC patient-derived lung adenocarcinoma cell line growth inhibition [RAS]
Conditions: for IC50: curve of first compound; for viability, T/C: stronger effect = lower value
How it was run: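 Agents were tested in combination matrices in half-log decrements from a top concentration at or near clinical Cmax (10 microM if undetermined). Targets were multi-cell spheroids of tumour lines plus HUVEC and MSC stromal cells.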
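Note: spheroids exposed to compounds for 7 days before readout.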
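Throughout, for viability, T/C: 100% = DMSO vehicle control viability.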

- IC50 (second compound 0.00316 µM): < 31.6 nM
- IC50 (second compound 0.01 µM): < 31.6 nM
- IC50 (second compound 0.0316 µM): < 31.6 nM
- IC50 (second compound 0.1 µM): < 31.6 nM
- IC50 (second compound 0.316 µM): < 31.6 nM
- IC50 (second compound 1 µM): < 31.6 nM
Compound: CC(C)NCC(C(=O)N1CCN(c2ncnc3c2C(C)CC3O)CC1)c1ccc(Cl)cc1 (configuration not stated) + C=CC(=O)N1CCN(c2nc(OCC3CCCN3C)nc3c(F)c(-c4nc(N)cc(C)c4C(F)(F)F)c(Cl)cc23)C(C)C1
- viability, T/C (second compound 0.00316 µM, first compound 0.0316 µM): 19.3%
- viability, T/C (second compound 0.00316 µM, first compound 0.1 µM): 17.8%
- viability, T/C (second compound 0.00316 µM, first compound 0.316 µM): 16.5%
- viability, T/C (second compound 0.00316 µM, first compound 1 µM): 22.4%
- viability, T/C (second compound 0.00316 µM, first compound 3.16 µM): 12.7%
- viability, T/C (second compound 0.00316 µM, first compound 10 µM): 8.85%
- viability, T/C (second compound 0.01 µM, first compound 0.0316 µM): 18%
- viability, T/C (second compound 0.01 µM, first compound 0.1 µM): 21.5%
- viability, T/C (second compound 0.01 µM, first compound 0.316 µM): 18.3%
- viability, T/C (second compound 0.01 µM, first compound 1 µM): 14.3%
- viability, T/C (second compound 0.01 µM, first compound 3.16 µM): 13.1%
- viability, T/C (second compound 0.01 µM, first compound 10 µM): 7.71%
- viability, T/C (second compound 0.0316 µM, first compound 0.0316 µM): 26.6%
- viability, T/C (second compound 0.0316 µM, first compound 0.1 µM): 17.3%
- viability, T/C (second compound 0.0316 µM, first compound 0.316 µM): 16.8%
- viability, T/C (second compound 0.0316 µM, first compound 1 µM): 14.7%
- viability, T/C (second compound 0.0316 µM, first compound 3.16 µM): 10.8%
- viability, T/C (second compound 0.0316 µM, first compound 10 µM): 11.1%
- viability, T/C (second compound 0.1 µM, first compound 0.0316 µM): 19.6%
- viability, T/C (second compound 0.1 µM, first compound 0.1 µM): 17.1%
- viability, T/C (second compound 0.1 µM, first compound 0.316 µM): 17.9%
- viability, T/C (second compound 0.1 µM, first compound 1 µM): 15%
- viability, T/C (second compound 0.1 µM, first compound 3.16 µM): 10.6%
- viability, T/C (second compound 0.1 µM, first compound 10 µM): 6.28%
- viability, T/C (second compound 0.316 µM, first compound 0.0316 µM): 19.6%
- viability, T/C (second compound 0.316 µM, first compound 0.1 µM): 16.8%
- viability, T/C (second compound 0.316 µM, first compound 0.316 µM): 15.3%
- viability, T/C (second compound 0.316 µM, first compound 1 µM): 13.8%
- viability, T/C (second compound 0.316 µM, first compound 3.16 µM): 13.5%
- viability, T/C (second compound 0.316 µM, first compound 10 µM): 8.85%
- viability, T/C (second compound 1 µM, first compound 0.0316 µM): 17.9%
- viability, T/C (second compound 1 µM, first compound 0.1 µM): 18.7%
- viability, T/C (second compound 1 µM, first compound 0.316 µM): 16.8%
- viability, T/C (second compound 1 µM, first compound 1 µM): 12%
- viability, T/C (second compound 1 µM, first compound 3.16 µM): 12.3%
- viability, T/C (second compound 1 µM, first compound 10 µM): 8.38%
